Test results reported in patent publication US6825348B2, “Antiviral compounds” (Academia Sinica, priority 2002, dated 2004).

Key:
PRPP synthetase = PRPP synthetase (UniProt P0A717); test: PRPP synthetase reaction, conversion to diphosphates and inhibition of AMP phosphorylation; type: biochemical; settings: compound as substrate of PRPP synthetase
Protocol: Enzymatic Conversion of Acyclic Nucleoside Phosphonates and Nucleotide 5′-Monophosphate Analog to Their Antivirally Active Diphosphates (Triphosphate Equivalents). Substrate affinities of acyclic nucleoside phosphonates 4, 20, 21, and dinucleotide analog 24 for PRPP synthetase as well as their inhibitory effect against the enzyme were evaluated according to the established procedures. See, e.g., Balzarini et al. (1991) J. Biol. Chem. 266: 8686-8689 and references cited therein. The assays were then terminated after 4 h by the addition of MeOH. HPLC on an anion-exchange Partisphere column was used to analyze the formation of […] 21pp, PMEApp, 4pp, 20pp, and 24pp.

[1] = test system: herpes simplex type 1 virus (HSV-1) (KOS); test: Inhibition of HSV-1 cytopathogenicity in Vero cell culture; type: cell-based; settings: Vero cell culture; 50% inhibition of virus-induced cytopathogenicity; mean of duplicates; for 1:1 (W/W) mixtures IC50 refers to known antiviral drugs
[2] = test system: herpes simplex type 2 virus (HSV-2) (G); test: Inhibition of HSV-2 cytopathogenicity in Vero cell culture; type: cell-based; settings: 50% inhibition of cytopathogenicity, for 1:1 mixtures IC50 refers to known antiviral drugs
[3] = test system: thymidine kinase-deficient (TK−) varicella-zoster virus (YS/R); test: microbe, parasite or virus in culture; type: cell-based; settings: Vero cell culture; 50% inhibition of cytopathogenicity; for 1:1 mixtures IC50 refers to known antiviral drugs
[4] = test system: thymidine kinase-positive (TK+) varicella-zoster virus (YS); test: Inhibition of TK+ VZV cytopathogenicity in Vero cell culture; type: cell-based; settings: Vero cell culture; 50% inhibition of cytopathogenicity; for 1:1 mixtures IC50 refers to known antiviral drugs
[5] = test system: human cytomegalovirus (AD-169); test: Inhibition of HCMV cytopathogenicity in Vero cell culture; type: cell-based; settings: Vero cell culture; 50% inhibition of cytopathogenicity; for 1:1 mixtures IC50 refers to known antiviral drugs

Compound | Km (PRPP synthetase) [µM] | HeLa cell, concentration causing microscopically visible change or disruption in about 50% of the cell sheet (HeLa cells) [µg/mL] | IC50 HSV-1 (KOS) [1] [µg/mL] | IC50 HSV-2 (G) [2] [µg/mL] | IC50 TK−VZV (YS/R) [3] [µg/mL] | Vero cell, concentration causing microscopically visible change or disruption in about 50% of the cell sheet (Vero cells) [µg/mL] | IC50 TK+VZV (YS) [4] [µg/mL] | IC50 HCMV (AD-169) [5] [µg/mL]
Nc1ncnc2c1ncn2[C@@H]1O[C@H](COP(=O)(O)O)[C@@H](O)[C@H]1O [AMP 21, adenosine 5′-monophosphate, reference compound] | 240 |  |  |  |  |  |  | 
Nc1nc2ncn(COCCCl)c2c(=O)[nH]1 [Compound 7, 7-[(2-Chloroethoxy)methy]guanine] |  | 157 | >128 | >128 | >128 | 145 | >128 | >128
Nc1ncnc2ncn(COCCCl)c12 [Compound 12, 7-[(2-Chloroethoxy)methy]adenine] |  | 169 | >128 | >128 | >128 | 165 | >128 | >128
